Results taken from US20150136638A1, “METHOD FOR PREPARING A SYRUPY PRODUCT COMPRISING VITAMINS” (LaboratoiresUrgo, priority 2012, published 2015).

Experiment: Assay of the vitamins contained in a randomly taken bottle of the syrupy product of Example 2 (yield = actual / theoretical amount x 100)
Assay type: physicochemical
Conditions: syrupy product of Example 2, after preparation and packaging under inert atmosphere; actual amount of vitamin in the bottle divided by theoretical amount x 100
Method: The process can be broken down into the following steps: • the two preparation tanks (PT1 and PT2) and the pipe connecting them are inerted with an overpressure of inert gas at 0.4 bar for 300 sec.; • the sugar syrup is introduced into the main preparation tank (PT1); • the sugar syrup is left to stir with bubbling of nitrogen with a pressure of 0.4 bar and a flow rate of 4 Nm^3/h for 4 hours; • the sugar syrup is heated at 50° C. by means of the double jackets surrounding tank PT1; • the pH of the sugar syrup is adjusted to 9.5 by introducing the sodium hydroxide and the ascorbic acid; • the secondary preparation tank (PT2) is preheated at 50° C. by means of the double jackets surrounding tank PT2; • the Montanox 80 and the following fat-soluble vitamins: vitamin A, vitamin D3, vitamin E, are introduced into the secondary preparation tank (PT2); • the mixture in tank PT2 is left to stir at 50° C. and with bubbling of nitrogen for 60 minutes; • the content of tank PT2 is transferred to tank PT1 via the pipe connecting them; • tank PT2 is rinsed several times with water, at 50° C., purified and deoxygenated beforehand, and the rinsing water is then transferred to tank PT1 via the pipe connecting PT2 to PT1; • the content of tank PT1 is left to stir at 50° C. and with bubbling of nitrogen for 60 minutes; • the temperature of the content of tank PT1 is reduced to 35° C.; • the following water-soluble vitamins: vitamin B1, vitamin B2, vitamin B3, vitamin B5, vitamin B6, vitamin B8, vitamin B12 and vitamin C, and also the plum flavoring, are introduced into tank PT1; • the reservoirs which contained the vitamins are rinsed with purified water and the rinsing water is added to tank PT1; • the content of tank PT1 is left to stir at 35° C. and with bubbling of nitrogen for 120 minutes; • the dehydrated glucose is introduced into tank PT1 via the powder-transferring system; • purified and deoxygenated water is introduced into tank PT1; • the content of tank PT1 is left to stir at 35° C. and with bubbling of nitrogen for 60 minutes; • the piping between tank PT1 and the storage tank is inerted, and the storage tank is inerted with a nitrogen pressure at 0.4 bar and a flow rate of 1 Nm^3/h for 300 seconds; • the content of tank PT1 is transferred to the storage tank passing through the mixer into which nitrogen is injected, in contraflow to the passage of the liquid, with a pressure of 0.4 bar and a flow rate of 8 Nm^3/h; • the syrupy product which gradually accumulates in the storage tank is kept stirring at 150 rpm and with bubbling of nitrogen with a pressure of 0.4 bar and a flow rate of 2 Nm^3/h; • the pipes between the storage tank and the bottle-filling machine, and also the packaging hopper, are inerted with nitrogen at a pressure of 0.3 bar for 600 seconds; • the syrupy product is transferred to the packaging hopper and the content is kept at a nitrogen pressure of 0.2 bar; • the syrupy product is gradually transferred to the bottle-filling machine; • the bottles are inerted with nitrogen at 1 bar for 100 milliseconds, then they are filled with a volume of syrupy product metered by a positive-displacement pump and they are kept under a nitrogen atmosphere until they are closed by means of a crimped valve.
One of the bottles produced is taken randomly and the vitamins contained in this bottle are assayed. The yields are calculated by dividing the actual amount of vitamins that is contained in the bottle by the theoretical amount of vitamins that should be in the bottle, and by multiplying the result by 100.

CC1=C(/C=C/C(C)=C/C=C/C(C)=C/CO)C(C)(C)CCC1 [Vitamin A, retinol]
YIELD (individual vitamin ratio): 100%

Cc1cc2nc3c(=O)[nH]c(=O)nc-3n(C[C@H](O)[C@H](O)[C@H](O)CO)c2cc1C [Vitamin B2, riboflavin]
YIELD (individual vitamin ratio): 98.6%

O=C(O)c1cccnc1 [Vitamin B3, nicotinic acid]
YIELD (individual vitamin ratio): 98.8%

CC(C)(CO)[C@@H](O)C(=O)NCCC(=O)O [Vitamin B5, pantothenic acid]
YIELD (individual vitamin ratio): 100%

Cc1ncc(CO)c(CO)c1O [Vitamin B6, pyridoxine]
YIELD (individual vitamin ratio): 98.6%

Vitamin E
YIELD (individual vitamin ratio): 100%
